This passage reports melting point results from a melting point compilation (Tetko et al.; mined from patent text by program, amines drawn as free bases though some values may be those of a salt).

As a reminder, the melting point is the temperature of the solid-liquid transition. Turning to `CCS(=O)(=O)Nc1ccc(Cc2ccc(N)cc2)cc1`, the melting point fell in the range of 108 to 109 °C. `Cc1ccc(C(C)(C)C)c(Oc2ccc(O)cc2)c1` showed a melting point of 102 °C.

The compound `COc1cc(CN2CCN(C(=O)c3ccc4c(c3)C(=O)c3ccccc3-4)CC2)cc(OC)c1OC` showed a melting point of 166 to 168 °C. Regarding `N#CCOC(=O)c1cc(SCc2ccccc2)c(Cc2ccccc2)c(S(N)(=O)=O)c1`, the melting point was in the range of 190 to 192 °C.

`Nc1nc2c(s1)CCNCC2` gave a melting point of 150 to 160 °C. Under `CSc1ccc(-n2cnc3ccc(-c4nnc(CCc5cccc(C(F)(F)F)c5)o4)cc32)cc1` stands 167 to 168 °C; under `CCc1cc(C=O)c2ccc3cccc4ccc1c2c34`, 134 to 136 °C; under `CCOC(=O)C=Cc1ccn(S(=O)(=O)c2ccc3nc[nH]c(=O)c3c2)c1`, 207 to 210 °C. `Fc1ccc(NC(=S)c2ccccn2)cc1Cn1ccnc1` yielded a melting point of 154 to 156 °C.

Regarding `O=c1c(CCl)coc2c1COc1ccccc1-2`, the melting point was in the range of 163 to 165 °C. `Nc1ccc(CCC(=O)NC23CC4CC(CC(C4)C2)C3)cc1N`: the melting point was 151 to 152 °C.

The compound `CCOc1ccccc1CN1CCC(=O)C(C(c2ccc(F)cc2)c2ccc(F)cc2)C1` (stereo not drawn) displayed a melting point of 137 to 138 °C.

The compound `CC(C)c1ccc2nc(C(F)(F)F)c(C(=O)Nc3nccs3)c(O)c2c1` yielded a melting point of 262 °C. As to `Brc1ccc(-c2cc3nccnc3[nH]2)cc1`, the melting point lay in the range of 326 to 329 °C. Under `Nc1c[nH]c(=S)n1C1CCc2ccccc2C1` (stereo not drawn) stands 169 to 171 °C; under `COc1ccc(C[C@H](NC(=O)OCc2ccccc2)C(=O)O)cc1`, 106 to 108 °C; under `NCC1COc2cc(F)cc(-c3ccccc3C(F)(F)F)c2N1` (stereo not drawn), 99 °C.

The compound `O=C(c1ccccc1)c1cc([N+](=O)[O-])ccc1NC1CCCC1` gave a melting point of 95 °C. Under `COC(=O)c1cc(C(=O)CNC(C)(C)Cc2ccc3c(c2)OCO3)ccc1OCc1ccccc1` stands 134 to 141 °C; under `CC(C)(C)c1ccc(S(=O)(=O)Nc2ncnc(Cl)c2Oc2ccccc2)cc1`, 143 to 144 °C. `CCOc1nc2ccccc2nc1NC(=O)N1CCN(C(c2ccccc2)c2ccccc2)CC1` had a melting point of 156 to 158 °C. Take `CN(C)C(=O)Cn1c(-c2ccc(Br)cc2)nc2cccnc21`: the melting point was in the range of 224 to 225 °C. `Cc1cc(NS(=O)(=O)c2ccccc2)no1` gave a melting point of 107 to 108 °C.

For `O=C(Nc1ccccc1S(=O)(=O)c1ccccc1)N[C@@H](Cc1ccc(NC(=O)c2c(Cl)cncc2Cl)cc1)C(=O)O`, the melting point was 214 °C.

The compound `CN1C[C@H](O)C[C@H]1C(N)=O` yielded a melting point of 138 to 140 °C. Compound `COc1ccc(S(=O)(=O)Nc2cccnc2Nc2ccccc2)cc1OC` came in with a melting point of 171 to 172 °C. With `COc1nc2c(cc1C#N)CCCCC2`, the melting point fell in the range of 83.5 to 84 °C. For the compound `CCc1nc2c(cnn2CC)c(NC2CCOCC2)c1CNC(=O)c1cccc(C(=O)NCc2ccc(OC)c(-c3cccc(CN4CC(C)NC(C)C4)c3)c2)c1` (stereo not drawn), the melting point was in the range of 127 to 129 °C. Compound `COc1cc2c(cc1F)CCN=C2C1(c2ccccc2Cl)CC1` had a melting point of 172 to 176 °C. Under `COc1cc(C=CC(=O)C=Cc2ccc(OC(C)=O)c(OC)c2)ccc1OC(C)=O` stands 150 °C. Regarding `COc1cc(C#N)cc2cc(CO)oc12`, the melting point was in the range of 149 to 150 °C. Under `Nc1nc2cc(Cl)c(Cl)cc2nc1-c1ccco1` stands 222 to 223 °C; under `CCOC(=O)C(C)Oc1ccc(Oc2cnc3cc(Cl)ccc3n2)cc1F` (stereo not drawn), 110 °C. The same measure for `O=C(OCC1c2ccccc2-c2ccc(S(=O)(=O)O)cc21)ON1C(=O)CCC1=O` (stereo not drawn): 140 to 146 °C; for `CCCCc1nc2c(N)nc3ccccc3c2n1CC1(O)CCCCC1`: 218 to 220 °C. The compound `Cc1ccccc1-c1ccc(C=O)cn1` displayed a melting point of 82 to 84 °C. The same measure for `CCCCOCCOc1ccc(-c2ccc(N3CCC(=O)C3)c(C=C(C)C(=O)OCC)c2)cc1`: 98.5 to 99 °C. The compound `CC1CCC(=O)N1CC(=O)NCCN(C(C)C)C(C)C` (stereo not drawn) returned a melting point of 73 to 74 °C. `O=C(CCC(=O)N1CCC(c2ccc(Cl)cc2)CC1)c1ccc2c(c1)CCNCC2` came in with a melting point of 148 to 149 °C.

On to `CC1Cc2cc(O)ccc2C2C(F)CC3(C)CC(O)CC3C12` (stereo not drawn), for which the melting point is 239 to 240 °C. Turning to `Cc1cc(-n2ccnc2)c2cccc(OCc3c(Cl)ccc(S(=O)(=O)N4CSC[C@H]4C(=O)O)c3Cl)c2n1`, the melting point was 130 °C. `CCOC(=O)c1cnc2c(SCN3CCSCC3)cccn2c1=O` yielded a melting point of 128 to 130 °C.

`NC(C=C(CP(=O)(O)O)c1ccccc1)C(=O)O` (stereo not drawn) gave a melting point of 230 to 233 °C. The same measure for `CCCCCCCC1CCC(C(C#N)Cc2ccc(Br)cc2)CC1` (stereo not drawn): 60 to 62 °C.

On to `C=CCOC1C(NC(C)=O)C(OCc2ccccc2)OC(COCc2ccccc2)C1OCc1ccccc1` (stereo not drawn), for which the melting point is 138 °C. For the compound `CCOC1CN(Cc2cc(OC)c(OC)c(OC)c2)Cc2cc(OC)c(O)cc21` (stereo not drawn), the melting point was 94 to 96 °C.

Turning to `COc1cc(Nc2c(C#N)cnc3cc(/C=C/CCN4CCCC4)c(OC)cc23)c(Cl)cc1Cl`, the melting point lay in the range of 158 to 159 °C. Compound `NCCOc1ccc(O)cc1` displayed a melting point of 175 °C. `CC1(C)C(=O)Nc2ccc(-c3cccc(C#N)c3)cc21` had a melting point of 200 to 202 °C.

For `Cc1c(OC(F)F)ccnc1CSc1nc2ccc(OC(F)F)cc2[nH]1`, the melting point was in the range of 181 to 182 °C. As to `CCOC(=O)NN1CCc2ccccc2C(Oc2ccc(C(F)(F)F)cc2)C1` (stereo not drawn), the melting point lay in the range of 156 to 157 °C. `CC(CN1CC=C(c2ccc(Cl)cc2)CC1)C(O)c1ccc(Cl)cc1` (stereo not drawn) gave a melting point of 110 to 112 °C.

Compound `O=C(O)c1ccccc1-c1nnc(-c2ccc(C(F)(F)F)cc2)s1` showed a melting point greater than 300 °C. Under `CCOC(=O)Cc1nn(Cc2nc3cc(Br)ccc3s2)c(=O)c2ccccc12` stands 160 to 161 °C; under `CCOC(=O)c1cccc2nc(CNC)n(Cc3ccc(-c4ccccc4-c4nnn[nH]4)cc3)c12`, 248 to 250 °C. Turning to `CC1CC(=O)N(c2ccccc2)c2cc(Cl)ccc2N1` (stereo not drawn), the melting point was 167 to 168 °C. `CCOP(=O)(OCC)c1ccc(/C=C/c2ccc3c(c2)C(C)(C)CCC3(C)C)cc1` gave a melting point of 83 to 84 °C. As to `CC(C(=O)O)c1ccc(-c2ccccc2)c(O)c1` (stereo not drawn), the melting point was 112 to 119 °C. In the case of `CCOC(=O)c1csc2cc(Oc3cc(Cl)nc(N)n3)ccc12`, the melting point lay in the range of 178 to 179 °C. Take `CCCCCCCCCCCCCCCCCC(=O)N1CC2(CCCCC2)NC2(CCCCC2)C1`: the melting point is 56 to 59 °C. Turning to `Clc1cccc(Nc2nc(OCC3CCCCC3)c3[nH]cnc3n2)c1`, the melting point was 196 to 199 °C. The same measure for `COc1cc(C)c(/C=C/c2nc3c([nH]2)c(=O)n(C)c(=O)n3C)cc1C`: greater than 280 °C; for `Cc1cc(C)cc(C(=O)c2c(C(C)C)c(=O)[nH]c(=O)n2CC2=CC(CO)C(CO)C2)c1` (stereo not drawn): 81 to 82 °C; for `CCCCc1nc2c(N)nc3ccccc3c2n1CCCCCCCCNS(=O)(=O)c1ccccc1`: 143 to 144 °C. Regarding `CCN(CC)c1ccc(CN2C(=O)C(C)(c3ccccc3Cl)c3cc(Cl)ccc32)c(OC)c1` (stereo not drawn), the melting point was determined as 198 °C.

`O=Cc1ccc(-c2nnn[nH]2)cc1` returned a melting point of 180 to 182 °C. The same measure for `C=CC[C@H](CC(=O)OC(C)(C)C)C(=O)N[C@H](C(=O)N[C@H](C)c1ccccc1)C(C)(C)C`: 123 to 126 °C; for `CCC(Oc1cccc(C)c1C)C1=NCCN1C=Nc1ccccn1` (stereo not drawn): 108 to 110 °C. Consider `CCOC(=O)C1=CN(c2ccc(Cl)c(Cl)c2Cl)N(N)C1`, for which the melting point lay in the range of 158 to 159 °C. The compound `O=C(Nc1ccc2cc(CN3CCCC3)cnc2c1F)c1ccc(-c2ccc(Cl)cc2)cc1` showed a melting point of 206 to 208 °C. Under `Cc1ccc(Oc2ccc(-n3cc(C(=O)O)nn3)cc2)c(O)c1` stands 159 to 161 °C; under `CC(Cc1c[nH]c2ccccc12)(NC(=O)OC1C2CC3CC(C2)CC1C3)C(=O)NCCc1ccco1` (stereo not drawn), 87 to 97 °C; under `CC(C)Cn1c(=O)n(C)c(=O)c2c(Sc3cccc(O)c3)n(Cc3cccc4ccccc34)cc21`, 150 to 151 °C.

For `O=c1ccc([N+](=O)[O-])cn1[C@@H]1c2ccccc2OCC[C@H]1O` (relative stereo), the melting point is 152 to 155 °C. In turn, `[N-]=[N+]=NCC(O)(Cn1cncn1)c1ccc(Cl)cc1Cl` (stereo not drawn) had a melting point of 117 to 119 °C. On to `CN(O)C(=O)C(=Cc1ccc2ccccc2c1)c1ccc(Cl)cc1`, for which the melting point lay within 140 to 142 °C. `O=C(Cl)c1cc2ccccc2[nH]1` displayed a melting point of 120 °C. Consider `O=C(O)c1cn(C2CC2)c2cc(N3CC(O)C3)c(F)cc2c1=O`, for which the melting point lay within 296 to 298 °C. As to `NC(=O)c1ccc(N2CCOCC2)cc1`, the melting point lay within 220 to 221 °C.

`C#Cc1ccc2c(c1)N(c1ncnc3cc(OC)c(OC)cc13)CC2` registered a melting point of 241 to 243 °C. With `CCOC(=O)c1cn(C2CSC2)c2nc(Cl)c(F)cc2c1=O`, the melting point was in the range of 157 to 161 °C.

`CCCc1cc(NC(=S)N2CCN(c3cc(OC)cc(OC)c3)CC2)c(OC)nc1C` gave a melting point of 143 to 144 °C.

As for `COCCNc1nc(-n2ccnc2)nc2ccc(C(C)=O)cc12`, the melting point lay in the range of 208 to 210 °C. In turn, `CCCCCCCC(=O)c1ccc(OC(C)=O)c(C(=O)O)c1` came in with a melting point of 130 °C. Compound `CCCOc1ccc([N+](=O)[O-])cc1C1=NC(=O)C2=NC=NC2=N1` yielded a melting point of 254 to 256 °C. The same measure for `O=c1ncc(Cl)cn1COCc1ccccc1`: 125 °C; for `CCOC(=O)Cc1sc(C(C)(C)c2c(Cl)cc(-n3ncc(=O)[nH]c3=O)cc2Cl)nc1-c1ccccc1`: 148 °C. With `CCCOc1cc(CCCOc2nn(Cc3ccccc3)cc2CC(=O)O)n(Cc2ccc(F)cc2F)n1`, the melting point lay in the range of 94 to 95 °C.
